In PMC4729137, “Functional analysis of androgen receptor mutations that confer anti-androgen resistance identified in circulating cell-free DNA from prostate cancer patients” (Genome Biology, 2016):
Substitutions are numbered along the chain they refer to.

Columns and labels:
[1] = molecular target: T1, H875Q-AR (Homo sapiens, UniProt P10275, H875Q); type: cell-based; conditions: AR mutant H875Q; transfected PC3 cells; 0.1 nM R1881; drug 0 to 50 μM
T1 sequence (P10275 1-920 H875Q): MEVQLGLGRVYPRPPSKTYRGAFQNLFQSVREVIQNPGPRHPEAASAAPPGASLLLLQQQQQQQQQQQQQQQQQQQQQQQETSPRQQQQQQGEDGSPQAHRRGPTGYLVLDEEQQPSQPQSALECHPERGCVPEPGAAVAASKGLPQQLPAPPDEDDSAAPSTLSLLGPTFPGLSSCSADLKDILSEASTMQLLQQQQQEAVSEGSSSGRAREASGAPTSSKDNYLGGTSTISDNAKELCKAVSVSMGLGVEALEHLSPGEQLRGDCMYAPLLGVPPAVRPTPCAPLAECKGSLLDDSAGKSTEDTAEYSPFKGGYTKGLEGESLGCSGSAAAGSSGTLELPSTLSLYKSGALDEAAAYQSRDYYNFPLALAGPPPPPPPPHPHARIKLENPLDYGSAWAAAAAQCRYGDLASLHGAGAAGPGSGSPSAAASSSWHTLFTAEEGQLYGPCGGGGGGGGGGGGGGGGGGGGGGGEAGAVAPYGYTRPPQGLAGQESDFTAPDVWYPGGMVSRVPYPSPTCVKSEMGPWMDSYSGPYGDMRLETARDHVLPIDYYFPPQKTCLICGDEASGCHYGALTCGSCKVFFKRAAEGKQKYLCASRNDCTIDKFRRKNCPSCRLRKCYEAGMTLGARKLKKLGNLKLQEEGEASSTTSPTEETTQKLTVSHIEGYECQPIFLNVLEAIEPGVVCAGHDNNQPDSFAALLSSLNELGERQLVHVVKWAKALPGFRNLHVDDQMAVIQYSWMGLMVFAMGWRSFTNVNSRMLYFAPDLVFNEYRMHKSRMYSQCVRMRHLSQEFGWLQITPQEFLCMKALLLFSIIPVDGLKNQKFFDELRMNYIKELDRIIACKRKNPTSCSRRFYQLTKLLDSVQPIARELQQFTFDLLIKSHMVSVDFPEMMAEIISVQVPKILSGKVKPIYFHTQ
Text: (§1) Full-length human AR (WT-AR) was encoded on a pcDNA3.1 expression plasmid (Life technologies). The LBD point mutations (single and multiple) were generated using the QuikChange II Site-Directed Mutagenesis Kit (Agilent Technologies) as per manufacturer’s instructions using WT-AR as the template. The mutagenic oligonucleotide primers were designed individually with the desired mutation in the middle of the primer with approximately 10 to 15 bases of correct sequence on both sides.
(§2) PC3 cells were seeded and transfected as described above. […] A non-stimulated/no R1881 control was used. After 24 h, cells were lysed and AR-dependent luciferase activity was quantified. Each concentration was assayed in quadruplicate n = 4, with a biological replicate of n = 3. Results were averaged and normalized by expressing them as a percentage of WT AR activity.

[2] = molecular target: T2, L882I-AR (Homo sapiens, UniProt P10275, L882I); type: cell-based; conditions: AR mutant L882I; transfected PC3 cells; 0.1 nM R1881; drug 0 to 50 μM
T2 sequence (P10275 1-920 L882I): T1 sequence (P10275 1-920 H875Q) with Q875H, L882I
Text: as §1, §2

Agonist response to treatment [1]: Partial | Agonist response to treatment [2]: Partial
SMILES: CC(C)(O)C(=O)Nc1ccc([N+](=O)[O-])c(C(F)(F)F)c1 [Hydroxyflutamide, hydroxyflutamide]
